{"source": "PubChem BioAssay (NCI)", "assay_in_all_cases": "DTP human tumour cell line panel, 48 h", "key": {"786-0 renal": {"tested_on": "786-0 renal"}, "A498 renal": {"tested_on": "A498 renal"}, "A549 NSCLC": {"tested_on": "A549 NSCLC"}, "ACHN renal": {"tested_on": "ACHN renal"}, "BT-549 breast": {"tested_on": "BT-549 breast"}, "CAKI-1 renal": {"tested_on": "CAKI-1 renal"}, "CCRF-CEM leukemia": {"tested_on": "CCRF-CEM leukemia"}, "COLO 205 colon": {"tested_on": "COLO 205 colon"}, "DU-145 prostate": {"tested_on": "DU-145 prostate"}, "EKVX NSCLC": {"tested_on": "EKVX NSCLC"}, "HCC-2998 colon": {"tested_on": "HCC-2998 colon"}, "HCT-116 colon": {"tested_on": "HCT-116 colon"}, "HCT-15 colon": {"tested_on": "HCT-15 colon"}, "HL-60(TB) leukemia": {"tested_on": "HL-60(TB) leukemia"}, "HOP-62 NSCLC": {"tested_on": "HOP-62 NSCLC"}, "HOP-92 NSCLC": {"tested_on": "HOP-92 NSCLC"}, "HS 578T breast": {"tested_on": "HS 578T breast"}, "HT29 colon": {"tested_on": "HT29 colon"}, "IGROV1 ovarian": {"tested_on": "IGROV1 ovarian"}, "K-562 leukemia": {"tested_on": "K-562 leukemia"}, "KM12 colon": {"tested_on": "KM12 colon"}, "LOX IMVI melanoma": {"tested_on": "LOX IMVI melanoma"}, "M14 melanoma": {"tested_on": "M14 melanoma"}, "MALME-3M melanoma": {"tested_on": "MALME-3M melanoma"}, "MCF7 breast": {"tested_on": "MCF7 breast"}, "MDA-MB-231 breast": {"tested_on": "MDA-MB-231 breast"}, "MDA-MB-435": {"tested_on": "MDA-MB-435"}, "MDA-MB-468 breast": {"tested_on": "MDA-MB-468 breast"}, "MOLT-4 leukemia": {"tested_on": "MOLT-4 leukemia"}}, "note": "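A five-concentration, 48-hour dose response in 96-well plates underlies each endpoint, interpolated linearly between surrounding concentrations. GI50 is the concentration that inhibits growth by half. TGI: concentration producing complete growth inhibition.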"}
{"smiles": "COc1ccc(C(=O)/C=C/c2c(F)cccc2Cl)cc1S(N)(=O)=O", "values": [{"measurement": "GI50", "setting": "786-0 renal", "value": 2.99, "unit": "µM"}, {"measurement": "TGI", "setting": "786-0 renal", "value": 10.5, "unit": "µM"}, {"measurement": "GI50", "setting": "A498 renal", "value": 15.9, "unit": "µM"}, {"measurement": "TGI", "setting": "A498 renal", "value": 32, "unit": "µM"}, {"measurement": "GI50", "setting": "A549 NSCLC", "value": 2.38, "unit": "µM"}, {"measurement": "TGI", "setting": "A549 NSCLC", "value": 10.1, "unit": "µM"}, {"measurement": "GI50", "setting": "ACHN renal", "value": 2.8, "unit": "µM"}, {"measurement": "TGI", "setting": "ACHN renal", "value": 8.33, "unit": "µM"}, {"measurement": "GI50", "setting": "BT-549 breast", "value": 2.72, "unit": "µM"}, {"measurement": "TGI", "setting": "BT-549 breast", "value": 8.63, "unit": "µM"}, {"measurement": "GI50", "setting": "CAKI-1 renal", "value": 4.07, "unit": "µM"}, {"measurement": "TGI", "setting": "CAKI-1 renal", "value": 13.9, "unit": "µM"}, {"measurement": "GI50", "setting": "CCRF-CEM leukemia", "value": 2.59, "unit": "µM"}, {"measurement": "TGI", "setting": "CCRF-CEM leukemia", "value": 6.78, "unit": "µM"}, {"measurement": "GI50", "setting": "COLO 205 colon", "value": 2.17, "unit": "µM"}, {"measurement": "TGI", "setting": "COLO 205 colon", "value": 3.95, "unit": "µM"}, {"measurement": "GI50", "setting": "DU-145 prostate", "value": 3.3, "unit": "µM"}, {"measurement": "TGI", "setting": "DU-145 prostate", "value": 12.5, "unit": "µM"}, {"measurement": "GI50", "setting": "EKVX NSCLC", "value": 4.12, "unit": "µM"}, {"measurement": "TGI", "setting": "EKVX NSCLC", "value": 14.4, "unit": "µM"}, {"measurement": "GI50", "setting": "HCC-2998 colon", "value": 2.78, "unit": "µM"}, {"measurement": "TGI", "setting": "HCC-2998 colon", "value": 10.3, "unit": "µM"}, {"measurement": "GI50", "setting": "HCT-116 colon", "value": 1.76, "unit": "µM"}, {"measurement": "TGI", "setting": "HCT-116 colon", "value": 3.78, "unit": "µM"}, {"measurement": "GI50", "setting": "HCT-15 colon", "value": 1.35, "unit": "µM"}, {"measurement": "TGI", "setting": "HCT-15 colon", "value": 3.38, "unit": "µM"}, {"measurement": "GI50", "setting": "HL-60(TB) leukemia", "value": 1.65, "unit": "µM"}, {"measurement": "TGI", "setting": "HL-60(TB) leukemia", "value": 6.46, "unit": "µM"}, {"measurement": "GI50", "setting": "HOP-62 NSCLC", "value": 3.01, "unit": "µM"}, {"measurement": "TGI", "setting": "HOP-62 NSCLC", "value": 9.42, "unit": "µM"}, {"measurement": "GI50", "setting": "HOP-92 NSCLC", "value": 3.58, "unit": "µM"}, {"measurement": "TGI", "setting": "HOP-92 NSCLC", "value": 15.3, "unit": "µM"}, {"measurement": "GI50", "setting": "HS 578T breast", "value": 6.43, "unit": "µM"}, {"measurement": "TGI", "setting": "HS 578T breast", "value": "> 100", "unit": "µM"}, {"measurement": "GI50", "setting": "HT29 colon", "value": 1.91, "unit": "µM"}, {"measurement": "TGI", "setting": "HT29 colon", "value": 3.81, "unit": "µM"}, {"measurement": "GI50", "setting": "IGROV1 ovarian", "value": 2.8, "unit": "µM"}, {"measurement": "TGI", "setting": "IGROV1 ovarian", "value": 10.4, "unit": "µM"}, {"measurement": "GI50", "setting": "K-562 leukemia", "value": 2.82, "unit": "µM"}, {"measurement": "TGI", "setting": "K-562 leukemia", "value": 14.2, "unit": "µM"}, {"measurement": "GI50", "setting": "KM12 colon", "value": 2.59, "unit": "µM"}, {"measurement": "TGI", "setting": "KM12 colon", "value": 6.66, "unit": "µM"}, {"measurement": "GI50", "setting": "LOX IMVI melanoma", "value": 1.61, "unit": "µM"}, {"measurement": "TGI", "setting": "LOX IMVI melanoma", "value": 3.34, "unit": "µM"}, {"measurement": "GI50", "setting": "M14 melanoma", "value": 2.62, "unit": "µM"}, {"measurement": "TGI", "setting": "M14 melanoma", "value": 10.6, "unit": "µM"}, {"measurement": "GI50", "setting": "MALME-3M melanoma", "value": 3.99, "unit": "µM"}, {"measurement": "TGI", "setting": "MALME-3M melanoma", "value": 16.4, "unit": "µM"}, {"measurement": "GI50", "setting": "MCF7 breast", "value": 2.19, "unit": "µM"}, {"measurement": "TGI", "setting": "MCF7 breast", "value": 11.2, "unit": "µM"}, {"measurement": "GI50", "setting": "MDA-MB-231 breast", "value": 2.88, "unit": "µM"}, {"measurement": "TGI", "setting": "MDA-MB-231 breast", "value": 7.71, "unit": "µM"}, {"measurement": "GI50", "setting": "MDA-MB-435", "value": 3.39, "unit": "µM"}, {"measurement": "TGI", "setting": "MDA-MB-435", "value": 15.7, "unit": "µM"}, {"measurement": "GI50", "setting": "MDA-MB-468 breast", "value": 1.47, "unit": "µM"}, {"measurement": "TGI", "setting": "MDA-MB-468 breast", "value": 4.12, "unit": "µM"}, {"measurement": "GI50", "setting": "MOLT-4 leukemia", "value": 2.41, "unit": "µM"}, {"measurement": "TGI", "setting": "MOLT-4 leukemia", "value": 7.58, "unit": "µM"}]}
